# From patent US9657073B2, “Inhibitors of Bcl-2” (Case Western Reserve University, priority 2010, dated 2017)
# Experiments:
# [1] = test system: wild type DT40 cells; experiment: Single cell digital imaging of intracellular Ca2+ (Fura-2); assay type: cell-based; details: 5 μM peptide, DT40 expressing all three IP3R isoforms, FIG. 8B
# Procedure: (§1) Methods of Ca^2+ imaging, described in detail previously, were employed here with only minor modification. Briefly, cells adhered to poly-L-lysine-coated coverslips (35-mm coverslip dishes, MatTek Corp., Ashland, Mass.) were loaded with 1 μM Fura-2 AM for 45 min at 25° C. in extracellular buffer (ECB) (130 mM NaCl, 5 mM KCl, 1.5 mM CaCl2, 1 mM MgCl2, 25 mM Hepes, pH 7.5, 1 mg/ml BSA, and 5 mM glucose). The buffer was replaced with fresh ECB and the incubation continued for […] at 25° C. to permit de-esterification. Culture dishes were mounted on the non-heated stage of an inverted microscope (Olympus CKX41) equipped with a 20× Fluor objective. Excitation light was alternated between 340 and 380 nm by a filter wheel (Sutter Instrument Co.), with 0.8 sec and 0.2 sec exposure times respectively, and emitted light was filtered at >510 nm and collected with an intensified charge-coupled device camera (Cooke 12 bit VGA). The video signal was digitized using InCyt Im2 software (Intracellular Imaging) and subsequently processed using Microsoft Excel. To determine Rmin cells were perfused with ECB deficient in Ca^2+ and supplemented with 4 mM EGTA and 10 μM ionomycin. Rmax was obtained by perfusing cells with ECB supplemented with 4 mM CaCl2 and 10 μM ionomycin. […] In most experiments peptides were fused with the cell penetrating peptide of HIV TAT to facilitate uptake by cells. […]
# [2] = test system: triple IP3R knockout DT40 cells; experiment: as above; assay type: cell-based; details: 5 μM peptide, TKO DT40, FIG. 8C
# Procedure: as §1
# [3] = test system: primary CLL cells; experiment: Apoptosis and cell death assays (trypan blue, propidium iodide, Hoechst nuclear morphology, Annexin V); assay type: cell-based, human; details: 24 hr
# From the text: Lymphocytes were freshly separated from heparinized peripheral blood obtained from normal adult volunteers or adult patients with chronic lymphocytic leukemia (CLL) meeting standard diagnostic guidelines. […] We conformed to all guidelines and regulations in accordance with Internal Review Board protocols ICC2902/11-02-28 (Case Western Reserve University Cancer Center/University Hospitals of Cleveland Ireland Cancer Center). Cells were separated by centrifugation through Ficoll-Hypaque and suspended in RPMI medium supplemented with 10% fetal bovine serum, L-glutamine (2 mM), and nonessential amino acids (100 μM) at a density of 2 million cells/ml. Normal CD19+ B cells were pooled from healthy individuals between 26 and 32 years of age, in accordance with IRB-approval (as above). Mononuclear cells were separated by Ficoll-Hypaque centrifugation, and further isolation of B and T cells was achieved by magnetic separation using CD19 microbeads (Miltenyi Biotec, Bergisch Gladbach, Germany).
# Apoptosis was quantified according to apoptotic nuclear morphology and by detection of phosphatidylserine exposure on the plasma membrane. […] Images were obtained using a chargecoupled device camera (Hamamatsu Photonics, Shizuoka, Japan) and digitally converted by Simple PCI software (Hamamatsu Photonics). Membrane translocation of phosphatidylserine was detected by Annexin V staining. Annexin V-positive cells were assessed by flow cytometry using an ARIA flow cytometer (Beckman Coulter, Pasadena, Calif., USA). All flow cytometry data were analyzed using FlowJo 8.8.4 for Macintosh (Treestar, Ashland, Oreg., USA). Dead cells were identified according to their inability to exclude trypan blue dye or propidium iodide. Trypan blue dye uptake into cells was detected by light microscopy using a 40× objective and quantified by counting up to 400 cells. Propidium iodide uptake was quantified by flow cytometry in association with the Annexin V measurement described above.
# [4] = test system: multiple myeloma cells; experiment: Killing of multiple myeloma cells; assay type: cell-based; details: FIG. 17
# [5] = test system: Jurkat cells; experiment: Single cell digital imaging of intracellular Ca2+ (Fura-2); assay type: cell-based, human; details: 10 μM peptide, Jurkat, FIG. 5
# Procedure: (§2) WEHI7.2 cells were cultured in DMEM supplemented with 10% fetal calf serum, L-glutamine (2 mM), and nonessential amino acids (100 μM). Transfections of WEHI7.2 cells with expression vectors encoding wild type Bcl-2 and Bcl-2RS/GG were described previously. Jurkat cells and RS11846 cells were cultured in RPMI medium supplemented with 10% fetal bovine serum, L-glutamine (2 mM), and nonessential amino acids (100 μM). Cells were maintained in 5% carbon dioxide at high humidity.
# (§3) Methods of Ca^2+ imaging, described in detail previously, were employed here with only minor modification. Briefly, cells adhered to poly-L-lysine-coated coverslips (35-mm coverslip dishes, MatTek Corp., Ashland, Mass.) were loaded with 1 μM Fura-2 AM for 45 min at 25° C. in extracellular buffer (ECB) (130 mM NaCl, 5 mM KCl, 1.5 mM CaCl2, 1 mM MgCl2, 25 mM Hepes, pH 7.5, 1 mg/ml BSA, and 5 mM glucose). The buffer was replaced with fresh ECB and the incubation continued for […] at 25° C. to permit de-esterification. Culture dishes were mounted on the non-heated stage of an inverted microscope (Olympus CKX41) equipped with a 20× Fluor objective. Excitation light was alternated between 340 and 380 nm by a filter wheel (Sutter Instrument Co.), with 0.8 sec and 0.2 sec exposure times respectively, and emitted light was filtered at >510 nm and collected with an intensified charge-coupled device camera (Cooke 12 bit VGA). The video signal was digitized using InCyt Im2 software (Intracellular Imaging) and subsequently processed using Microsoft Excel. To determine Rmin cells were perfused with ECB deficient in Ca^2+ and supplemented with 4 mM EGTA and 10 μM ionomycin. Rmax was obtained by perfusing cells with ECB supplemented with 4 mM CaCl2 and 10 μM ionomycin. […] In most experiments peptides were fused with the cell penetrating peptide of HIV TAT to facilitate uptake by cells. In some experiments peptides, without linkage to TAT, were delivered into cells using Chariot reagent (Active Motif) as previously described. Xestospongin C (Enzo Life Sciences International) and U73122 (Sigma), both dissolved in DMSO, were added to cells […] prior to Ca^2+ measurements.
# [6] = test system: RS11846 cells; experiment: as above; assay type: cell-based, human; details: RS11846, FIG. 6
# Procedure: as §2, §3
# [7] = test system: primary CLL cells; experiment: as above; assay type: cell-based, human; details: 10 μM peptide
# From the text: Lymphocytes were freshly separated from heparinized peripheral blood obtained from normal adult volunteers or adult patients with chronic lymphocytic leukemia (CLL) meeting standard diagnostic guidelines. Patients had either never received treatment or had received treatment over two years prior to obtaining samples. We conformed to all guidelines and regulations in accordance with Internal Review Board protocols ICC2902/11-02-28 (Case Western Reserve University Cancer Center/University Hospitals of Cleveland Ireland Cancer Center). Cells were separated by centrifugation through Ficoll-Hypaque and suspended in RPMI medium supplemented with 10% fetal bovine serum, L-glutamine (2 mM), and nonessential amino acids (100 μM) at a density of 2 million cells/ml. Normal CD19+ B cells were pooled from healthy individuals between 26 and 32 years of age, in accordance with IRB-approval (as above). Mononuclear cells were separated by Ficoll-Hypaque centrifugation, and further isolation of B and T cells was achieved by magnetic separation using CD19 microbeads (Miltenyi Biotec, Bergisch Gladbach, Germany).
# as §3
substance,measurement,setting,value
TAT-IDPDD/AA: TAT-IDP analogue; DD/AA substitution eliminates the predicted aspartyl protease cleavage site (RKKRRQRRRGGNVYTEIKCNSLLPLAAIVRV),induction of Ca2+ oscillations,[1],induced Ca^2+ oscillations
same,induction of Ca2+ oscillations compared with wild type DT40,[2],significantly less
same,apoptosis induction in CLL cells,"[3]; 10 μM peptide, Figs. 12-15",substantial apoptosis
same,sensitivity of CLL cells to apoptosis induction relative to normal peripheral blood lymphocytes,"[3]; propidium iodide exclusion by flow cytometry, FIG. 16",over 6 fold
same,killing of multiple myeloma cells,[4],kills multiple myeloma cells
same,amplitude and frequency of Ca2+ oscillations compared with TAT-IDP,[5],much higher
same,activity (Ca2+ oscillations) compared to TAT-IDP,[6],increased activity
same,CLL cells with one or two high amplitude spikes associated with prolonged basal Ca2+ elevation,[7]; 90 min,28±5%
same,CLL cells with prolonged Ca2+ oscillations without baseline Ca2+ elevation,[7]; 90 min,6±2%
same,CLL cells with relatively brief burst of Ca2+ oscillations associated with prolonged basal Ca2+ elevation,[7]; 90 min,17±4%
same,amplitude of Ca2+ peaks compared to TAT-IDP,[7]; FIG. 10,significantly higher
same,CLL cells with Ca2+ elevation,"[7]; recordings typically 90 min, FIG. 9",51 ±5%
